Four compounds from ChEMBL document CHEMBL1201862, “PubChem BioAssay data set” (2004) can be followed below.

The source made the active and inactive calls.

The target in experiment [1] is T1, Cysteine protease ATG4B (Homo sapiens, UniProt Q9Y4P1).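 Note: Fluorescence-based dose-response confirmation assay measuring inhibition of ATG4B activity.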
T1 sequence (Q9Y4P1 whole entry): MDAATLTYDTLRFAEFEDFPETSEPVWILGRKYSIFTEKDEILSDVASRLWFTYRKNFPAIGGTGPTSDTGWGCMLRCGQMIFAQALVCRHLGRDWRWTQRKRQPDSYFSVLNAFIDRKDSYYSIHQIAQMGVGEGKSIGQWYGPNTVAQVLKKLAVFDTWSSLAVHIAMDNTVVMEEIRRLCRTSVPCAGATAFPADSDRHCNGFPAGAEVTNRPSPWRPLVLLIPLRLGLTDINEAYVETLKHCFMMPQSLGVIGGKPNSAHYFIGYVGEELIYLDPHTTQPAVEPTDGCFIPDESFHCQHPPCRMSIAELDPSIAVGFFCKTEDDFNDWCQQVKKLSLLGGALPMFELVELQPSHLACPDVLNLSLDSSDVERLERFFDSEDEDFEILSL
Type of experiment: functional.

Experiment [2] has as its target Phospholipase A2 (Homo sapiens, UniProt P04054). Type of experiment: functional.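 Note: confirmatory dose-response counterscreen on phospholipase A2, testing hits that came from an ultra-high-throughput screen for ATG4B inhibitors.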
Experiment [3] concerns the target T2, Caspase-6 (Homo sapiens, UniProt P55212).
T2 sequence (P55212 whole entry): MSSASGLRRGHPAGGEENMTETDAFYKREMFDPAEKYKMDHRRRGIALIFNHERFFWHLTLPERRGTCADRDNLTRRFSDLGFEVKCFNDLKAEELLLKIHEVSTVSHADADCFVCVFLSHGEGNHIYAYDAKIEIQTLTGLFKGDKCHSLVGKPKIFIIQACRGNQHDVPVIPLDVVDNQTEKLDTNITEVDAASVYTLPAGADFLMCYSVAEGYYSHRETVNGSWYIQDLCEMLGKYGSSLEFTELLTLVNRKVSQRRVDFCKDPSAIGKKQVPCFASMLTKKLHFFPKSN
The experiment is described as follows: human caspase-6 inhibitors, dose response, biochemical, VEID-R110 fluorescence, cherry-pick (AID 720632).

Experiment [4] deals with T3, Caspase-7 (Homo sapiens, UniProt P55210).
T3 sequence (P55210 whole entry): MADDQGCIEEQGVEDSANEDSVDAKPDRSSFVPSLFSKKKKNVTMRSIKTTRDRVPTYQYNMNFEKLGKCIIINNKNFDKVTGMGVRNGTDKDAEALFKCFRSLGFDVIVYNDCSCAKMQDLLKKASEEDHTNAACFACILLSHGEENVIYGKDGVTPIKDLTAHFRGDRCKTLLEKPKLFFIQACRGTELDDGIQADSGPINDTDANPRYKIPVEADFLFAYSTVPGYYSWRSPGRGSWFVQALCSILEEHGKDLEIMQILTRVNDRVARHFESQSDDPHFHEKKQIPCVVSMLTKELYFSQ
The experiment is described as follows: human caspase-7 inhibitors, dose response, selectivity assay for caspase-6 inhibitor project, biochemical, DEVD-R110 fluorescence, cherry-pick (AID 743295). Type of experiment: […].

For experiment [5], the target named is T4, Replicative DNA helicase DnaB (Mycobacterium tuberculosis, UniProt P9WMR3).
T4 sequence (P9WMR3 whole entry): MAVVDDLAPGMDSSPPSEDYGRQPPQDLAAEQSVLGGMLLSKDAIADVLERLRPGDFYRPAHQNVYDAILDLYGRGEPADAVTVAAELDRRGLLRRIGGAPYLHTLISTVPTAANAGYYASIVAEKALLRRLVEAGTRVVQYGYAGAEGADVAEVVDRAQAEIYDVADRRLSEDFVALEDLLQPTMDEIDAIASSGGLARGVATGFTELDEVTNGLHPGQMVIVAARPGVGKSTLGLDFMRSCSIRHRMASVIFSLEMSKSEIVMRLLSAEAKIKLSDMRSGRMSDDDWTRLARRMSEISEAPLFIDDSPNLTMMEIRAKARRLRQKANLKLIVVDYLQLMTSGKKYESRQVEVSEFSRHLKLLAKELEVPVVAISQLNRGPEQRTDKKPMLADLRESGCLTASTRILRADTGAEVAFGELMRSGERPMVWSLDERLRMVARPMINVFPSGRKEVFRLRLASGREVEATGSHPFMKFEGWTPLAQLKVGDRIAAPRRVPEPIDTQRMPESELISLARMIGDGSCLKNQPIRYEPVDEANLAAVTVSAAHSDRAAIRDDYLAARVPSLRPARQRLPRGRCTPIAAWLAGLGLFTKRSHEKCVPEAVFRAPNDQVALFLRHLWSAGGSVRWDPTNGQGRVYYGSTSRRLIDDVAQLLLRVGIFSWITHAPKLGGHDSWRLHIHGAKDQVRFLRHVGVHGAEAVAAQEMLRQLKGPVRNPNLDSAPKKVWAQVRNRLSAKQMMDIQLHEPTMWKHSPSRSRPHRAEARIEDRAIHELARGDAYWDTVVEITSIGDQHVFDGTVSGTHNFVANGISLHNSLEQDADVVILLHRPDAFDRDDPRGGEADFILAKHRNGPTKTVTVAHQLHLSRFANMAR
The experiment is described as follows: DnaB intein splicing inhibitors, dose response, biochemical, cell-free fluorescence (AID 449749). The format is functional.

Experiment [6] deals with T5, Protein RecA (Mycobacterium tuberculosis, UniProt P9WHJ3).
T5 sequence (P9WHJ3 whole entry): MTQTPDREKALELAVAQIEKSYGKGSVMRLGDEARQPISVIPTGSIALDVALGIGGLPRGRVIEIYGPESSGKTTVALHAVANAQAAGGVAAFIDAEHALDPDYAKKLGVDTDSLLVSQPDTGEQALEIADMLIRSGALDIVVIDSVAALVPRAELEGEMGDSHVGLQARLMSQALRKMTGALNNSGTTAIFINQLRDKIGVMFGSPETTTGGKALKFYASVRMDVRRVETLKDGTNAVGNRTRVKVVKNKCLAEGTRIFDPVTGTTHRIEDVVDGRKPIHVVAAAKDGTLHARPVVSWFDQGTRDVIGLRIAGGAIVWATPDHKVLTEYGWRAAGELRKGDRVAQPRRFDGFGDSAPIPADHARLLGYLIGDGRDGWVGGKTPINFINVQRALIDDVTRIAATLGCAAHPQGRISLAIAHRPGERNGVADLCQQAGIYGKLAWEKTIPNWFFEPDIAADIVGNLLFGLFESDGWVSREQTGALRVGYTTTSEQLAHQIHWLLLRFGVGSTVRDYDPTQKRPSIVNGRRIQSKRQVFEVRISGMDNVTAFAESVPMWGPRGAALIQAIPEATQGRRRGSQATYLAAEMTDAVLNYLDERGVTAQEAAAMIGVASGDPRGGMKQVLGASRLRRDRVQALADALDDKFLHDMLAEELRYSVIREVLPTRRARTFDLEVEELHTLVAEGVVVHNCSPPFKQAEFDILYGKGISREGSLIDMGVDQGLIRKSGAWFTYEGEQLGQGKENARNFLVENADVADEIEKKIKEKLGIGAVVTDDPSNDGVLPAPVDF
The experiment in a line: Fluorescence Cell-Free Homogeneous Dose Retest to Identify Inhibitors of RecA-Intein Splicing Activity. [Related pubchem assays (depositor defined):AID2097, AID2223, AID489010, AID492950]. Type of experiment: functional.

The subject of experiment [7] is INS1. The experiment is described as follows: beta cell apoptosis inhibitors, cytokine rescue, dose response, luminescence, retest (AID 449756).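 Note: cell death triggered by IL-1 beta plus TNF-alpha plus IFN-gamma mixture; protective hits raise ATP signal compared with cytokine alone wells.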 The format is functional, cell-based. To be noted: Rattus norvegicus.
Experiment [8] can be described thus: NIH-3T3 fibroblast cytotoxicity, dose response, cytotoxicity control, cell-based, fluorescence, Alamar Blue, secondary assay (AID 2327).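 Note: NIH-3T3 mouse fibroblasts cultured with fluconazole at 8 µg/mL.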 The format is functional.

Sequence of Phospholipase A2 (P04054 whole entry): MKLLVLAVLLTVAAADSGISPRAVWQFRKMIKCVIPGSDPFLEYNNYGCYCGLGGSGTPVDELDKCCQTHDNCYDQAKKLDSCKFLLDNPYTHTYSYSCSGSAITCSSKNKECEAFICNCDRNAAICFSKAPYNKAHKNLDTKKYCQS

For `COc1ccc(NS(=O)(=O)c2ccc3c(c2)[C@H]2C=CC[C@H]2[C@@H](c2ccc(C(=O)O)cc2)N3)cc1`, the figures for the IC50 in experiment [1] and in experiment [2] were 5.28 µM (active) and 6.87 µM (active), respectively. The AC50 (commonly the concentration at which the activity in the assay is half-maximal) in experiment [3] was 4.43 µM (active); in experiment [4] it was > 70 µM (inactive).
As for `Cn1nc(-c2ccccn2)nc2c(=O)n(C)c(=O)nc1-2`, the IC50 (commonly the concentration at which inhibition is half-maximal) was 2.07 µM (active) in experiment [1] and > 80 µM (inactive) in experiment [2]. Further, the AC50 is 0.573 µM (active) in experiment [5], 1.92 µM (active) in experiment [7], 0.219 µM (active) in experiment [3] and 0.371 µM (active) in experiment [4]. For the same compound, the EC50 (as a rule, the concentration needed to bring the measured effect to its halfway point) in experiment [6] was 0.0191 µM (active).
In the case of `CCC(=O)NC(c1ccc(OC)cc1)c1cc(Cl)c2cccnc2c1O` (stereo unspecified), the EC50 in experiment [8] was 12.6 µM (inconclusive). Moreover, the AC50 in experiment [7] was 1.08 µM (active).
`CCCCCCCCCCn1c2c(c(=N)c3c1CCC3)CCC2`: the EC50 is 26.1 µM (active) in experiment [8] and 1.83 µM (active) in experiment [6]. The AC50 in experiment [5] was 2.81 µM (active).
